Results from patent publication US20070141171A1, “NOVEL COMPOSITION AND METHOD FOR THE TREATMENT OF HYPERTENSION” (priority 2003, published 2007).

Tests used:
Assay type in all cases: cell-based
[1] = system: cultured human aortic smooth muscle cells (SMC); experiment: SMC collagen gel contraction stimulated by angiotensin II; settings: for activity as inhibitor of Ang II-stimulated gel contraction: summary statement; for rank of effectiveness on ATII-induced gel contraction (catechins) / rank of effectiveness on ATII (polyphenols): at 30; for effect on ATII-induced gel: 1-4 mM, individual or comb; for GA, % vs 100% control / increase in gel area (GA) vs ATII: 30 mcM; for GA, % vs 100% control: ATII alone 76%
Method: Plant-derived bioflavonoids have been recognized to support arterial wall structural integrity and interfere with a variety of pro-atherosclerotic stimuli. We tested whether bioflavonoids have an effect on the contractile activity of cultured human aortic smooth muscle cells (SMC) embedded in a three-dimensional type I collagen (1 mg/mL) matrix. […]
The following starting material and equipment were used. • 1. Cultured vascular smooth muscle cells (SMC) isolated from human aorta.
Cells are used from 4th to 8th passages. • 2. Human collagen type I. • 3. Angiotensin II. • 4. Epican Forte (composition shown in Table 1, available from Matthias Rath, Inc., and all ingredients commercially available) • 5. Epigallocatechin gallate (EGCG) • 6. Quercetin (chemical structure is well defined) • 7. Cell culture medium (DMEM) • 8. 24 well plastic cell culture plate pre-incubated with 2 mg/ml bovine serum albumin. • 9. Digital camera • 10. Digital image analyzing software (Scion Corporation). • 11. Zymography gel electrophoresis assay (Novorex Corp).
Confluent culture of SMC and suspended from culture flask by trypsinization and washed with phosphate-buffered saline (PBS) from serum-containing medium. Cell concentration in suspension was brought to 500,000 cell per mL in serum-free DMEM. Cell suspension was then mixed 1:1 with ice-cold 2 mg/ml collagen type I solution in PBS. Final concentration of collagen was 1 mg/mL, final cell concentration is 250,000 per mL. Collagen-SMC suspension was distributed by 300 microL to the wells of 24 well plate in such a manner to cover the entire bottom surface of the well. The plate was then incubated for one hour at 37° C. to allow gel to polymerize. 0.5 mL of experimental serum-free medium containing no additions (control), […] was added to polymerized gel, plate was then gently tapped on the side to detach gel from the bottom of plastic well, and plate was then placed to incubator with the controlled atmosphere containing 5%CO2 at 37° C. for incubation. After 24 hour incubation plate was taken from the incubator and plate image with floating gels was taken using digital camera. Gel flat surface area is measured with digital image analyzing software. Sample of cell culture media was taken for analysis of matrix metalloproteinases activity by zymography (Novorex Corp). Experiments were performed in triplicates and results are presented as a mean +/−SD.

[2] = system: cultured human aortic smooth muscle cells (SMC); experiment: SMC collagen gel contraction stimulated by Thrombin; settings: for GA, % vs 100% control: 30 mcM, Thrombin alone 70%
[3] = system: cultured human aortic smooth muscle cells (SMC); experiment: SMC collagen gel contraction stimulated by Angiotensin I; settings: Mar. 25, 2003; ATI 330-1000 nM alone
[4] = Mar. 25, 2003, in combination with EF

**Q.** `N=C(N)NCCC[C@H](N)C(=O)O` [Arginine] was tested. Which “effect on ATII-induced gel reduction” value ([1]; Mar. 20, 2003, Arginine 0.5-2 mM) did it give?
**A.** no significant effect

**Q.** How did the “effect on Thrombin GA reduction” value ([2]; Apr. 2, 2003, AsA 200 mcM) turn out when `O=C1O[C@H]([C@@H](O)CO)C(O)=C1O` [AsA, ascorbic acid] was run?
**A.** had no effect

**Q.** What about the “activity as inhibitor of Ang II-stimulated gel contraction” value (shortened to “activity as inhibitor”) ([1]; 1 micromol/L Ang II, 24 hours) of the same compound?
**A.** not significantly active

**Q.** And the “effect on ATII GA reduction” value ([1]; Apr. 2, 2003, AsA 200 mcM)?
**A.** had no effect

**Q.** What about the “effect on ATII-induced gel reduction” value ([1]; Apr. 17, 2003, AsA 500 mcM alone) of the same compound?
**A.** did not have effect

**Q.** And the “effect on ATII-induced gel reduction” value ([1]; Apr. 17, 2003, AsA 500 mcM in combination with 10 EGCG)?
**A.** did not have effect

**Q.** And the “gel reduction to % of 100% control” value ([1]; Mar. 18, 2003, ATII 1 mcM + AsA 100 mcM)?
**A.** 30%

**Q.** And the “gel reduction to % vs 100% ATII 1 mcM” value ([1]; Mar. 20, 2003, AsA 0.5 mM + ATII)?
**A.** 90%

**Q.** How did the “rank of effectiveness on ATII-induced gel contraction (catechins)” value (“rank of effectiveness … (catechins)” for short) ([1]; Apr. 17, 2003) turn out when `Oc1cc(O)c2c(c1)OC(c1ccc(O)c(O)c1)C(O)C2` (stereo not drawn) [C] was run?
**A.** EC=C

**Q.** For `[Ca+2]` [Ca], which “effect on ATII-induced gel” value ([1]; Mar. 20, 2003) is on record?
**A.** no effects

**Q.** `O=C(O[C@@H]1Cc2c(O)cc(O)cc2O[C@@H]1c1ccc(O)c(O)c1)c1cc(O)c(O)c(O)c1` [ECG] was tested. Which “rank of effectiveness … (catechins)” value ([1]; Apr. 17, 2003) did it give?
**A.** more effective than EC=C

**Q.** `Oc1cc(O)c2c(c1)O[C@H](c1ccc(O)c(O)c1)[C@H](O)C2` [EC] was tested. Which “rank of effectiveness … (catechins)” value ([1]; Apr. 17, 2003) did it give?
**A.** EC=C

**Q.** How did the “GA, % vs 100% control” value ([2]; Apr. 2, 2003) turn out when `O=C(O[C@@H]1Cc2c(O)cc(O)cc2O[C@@H]1c1cc(O)c(O)c(O)c1)c1cc(O)c(O)c(O)c1` [EGCG, Epigallocatechin gallate] was run?
**A.** 206%

**Q.** What about the “activity as inhibitor” value ([1]; 1 micromol/L Ang II, 24 hours) of the same compound?
**A.** most active inhibitors of gel contraction

**Q.** And the “inhibition of Ang II-induced gel contraction” value ([1]; 30 micromol/L, 1 micromol/L Ang II, 24 hours)?
**A.** 97%

**Q.** And the “GA, % vs 100% control” value ([1]; Apr. 2, 2003)?
**A.** 150%

**Q.** And the “effect on gel contraction by ATII” value ([1]; Apr. 17, 2003, EGCG 3.3-10-30 mcM)?
**A.** dose-dependently reduced gel contraction

**Q.** And the “rank of effectiveness … (catechins)” value ([1]; Apr. 17, 2003)?
**A.** more effective than ECG30

**Q.** And the “gel reduction to % of 100% control” value ([1]; Mar. 18, 2003, ATII 1 mcM + EGCG 15 mcM)?
**A.** 30%

**Q.** `O=c1c(-c2ccc(O)cc2)coc2cc(O)cc(O)c12` [Genistein] was tested. Which “GA, % vs 100% control” value ([2]; Apr. 2, 2003) did it give?
**A.** 78%

**Q.** And the “GA, % vs 100% control” value ([1]; Apr. 2, 2003)?
**A.** 96%

**Q.** What about the “rank of effectiveness on ATII (polyphenols)” value ([1]; Apr. 17, 2003) of the same compound?
**A.** Querc30=>Genist30=>Resver30=>Rutin30

**Q.** And the “increase in gel area (GA) vs ATII” value ([1]; Mar. 25, 2003, alone)?
**A.** 34%

**Q.** What about the “increase in gel area (GA) vs ATII” value [1, 4] of the same compound?
**A.** 11%

**Q.** Which “effect on ATII GA reduction” value ([1]; Mar. 28, 2003, 0.25-1 mM) does the source give for `NCCCC[C@H](N)C(=O)O` [Lysine] here?
**A.** did not effect

**Q.** For `[Mg+2]` [Mg], which “effect on ATII-induced gel” value ([1]; Mar. 20, 2003) is on record?
**A.** no effects

**Q.** How did the “GA returned to % of control” value ([1]; Mar. 26, 2003, NAC 2 mcM, ATII 1 mcM (21% reduction)) turn out when `CC(=O)N[C@@H](CS)C(=O)O` [NAC, N-Acetyl Cystein] was run?
**A.** 100%

**Q.** And the “effect on ATII GA reduction” value ([1]; Mar. 26, 2003, NAC higher concentration up to 60 mcM)?
**A.** did not have any effect

**Q.** With `O=C(O)[C@@H]1CCCN1` [Proline] as the compound, how does the “effect on ATII GA reduction” value ([1]; Mar. 28, 2003, 0.25-1 mM) read?
**A.** did not effect

**Q.** For `O=c1c(O)c(-c2ccc(O)c(O)c2)oc2cc(O)cc(O)c12` [Quercetin], which “GA, % vs 100% control” value ([2]; Apr. 2, 2003) is on record?
**A.** 133%

**Q.** What about the “activity as inhibitor” value ([1]; 1 micromol/L Ang II, 24 hours) of the same compound?
**A.** most active inhibitors of gel contraction

**Q.** And the “GA, % vs 100% control” value ([1]; Apr. 2, 2003)?
**A.** 167%

**Q.** And the “rank of effectiveness on ATII (polyphenols)” value ([1]; Apr. 17, 2003)?
**A.** Querc30=>Genist30=>Resver30=>Rutin30

**Q.** And the inhibition at 30 µM ([1]; Homo sapiens, 30 micromol/L, 1 micromol/L Ang II, 24 hours, read-out: inhibition of Ang II-induced gel contraction)?
**A.** 120%

**Q.** Which results are given for `Oc1ccc(C=Cc2cc(O)cc(O)c2)cc1` [Resveratrol]?
**A.** GA, % vs 100% control ([2]; Apr. 2, 2003): 106%; GA, % vs 100% control ([1]; Apr. 2, 2003): 88%; rank of effectiveness on ATII (polyphenols) ([1]; Apr. 17, 2003): Querc30=>Genist30=>Resver30=>Rutin30; effect on gel area vs ATII ([1]; Mar. 25, 2003, 15 mcM, alone): no effect; effect on EF effect ([1]; Mar. 25, 2003, 15 mcM, with EF): no effect; increase in gel area (GA) vs ATII ([1]; Mar. 25, 2003, alone): 45%; increase in gel area (GA) vs ATII [1, 4]: 104%

**Q.** `C[C@@H]1O[C@@H](OC[C@H]2O[C@@H](Oc3c(-c4ccc(O)c(O)c4)oc4cc(O)cc(O)c4c3=O)[C@H](O)[C@@H](O)[C@@H]2O)[C@H](O)[C@H](O)[C@H]1O` [Rutin] was tested. Which “GA, % vs 100% control” value ([2]; Apr. 2, 2003) did it give?
**A.** 56%

**Q.** What about the “GA, % vs 100% control” value ([1]; Apr. 2, 2003) of the same compound?
**A.** 80%

**Q.** How did the gel reduction [3] turn out when “Angiotensin I (DRVYIHPFHL; Angiotensin-1; UniProt P01019 25-34, looked up) [ATI, stimulus of gel contraction]” was run?
**A.** gel reduction at 1000 nM only

**Q.** What does the source list for “Angiotensin II (DRVYIHPF; Angiotensin-2; UniProt P01019 25-32, looked up) [ATII, stimulus of gel contraction, reference compound]”?
**A.** GA reduced by ([1]; Apr. 2, 2003, ATII alone at 1 mcM): 24%; effect on gel contraction ([1]; Mar. 7, 2003, ATII 1 mcM alone): no effects; gel reduction to % of Control 100% ([1]; Mar. 11, 2003, ATII 1 mcM alone): 59%; gel reduction to % of 100% control ([1]; Mar. 18, 2003, ATII 1 mcM alone): 23%; gel reduction to % of 100% control ([1]; Mar. 20, 2003, ATII 1 mcM alone): 81%; reduction in gel ([1]; Mar. 25, 2003, ATII 110-330-1000 nM alone): dose dependent reduction in gel; GA reduction ([1]; Mar. 26, 2003, ATII 1 mcM alone): 21%

**Q.** Thrombin [reference compound] was tested. Which “GA reduced by” value ([2]; Apr. 2, 2003, Thrombin alone at 1 mcM) did it give?
**A.** 30%

**Q.** And the “effect on gel contraction” value ([2]; Mar. 7, 2003, Thrombin 0.1 U/mL alone)?
**A.** no effects

**Q.** What about the “gel reduced by” value ([2]; Mar. 10, 2003, Thrombin 0.1 U/mL alone, 9% in control) of the same compound?
**A.** 58%
